Laboratory results reported in US20260256751A1, “COMBINATION OF BETA-2-ADRENERGIC RECEPTOR AGONISTS AND GLP-1 RECEPTOR AGONISTS FOR USE IN TREATING HYPERGLYCAEMIA” (ATROGI AB, priority 2023, published 2026).

Tests used:
[1] = tested on: differentiated L6-myotubes; assay: Glucose uptake screen (Biological example 1 of WO 2019/053427); type: cell-based; conditions: compound at 10 μM, activity relative to isoproterenol at 10 μM, read-out: Biological example 1 of WO 2019/053427 (GU)
How it was run: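 Rat L6 myoblasts were differentiated into myotubes over 7 days in 2% FBS, then serum-starved overnight. Cells were stimulated with 1×10^−5 M compound plus β2 antagonist ICI-118551 for 1 h 40 min and re-dosed for 20 min in glucose-free medium. Uptake of 50 nM ^3H-2-deoxyglucose over 10 min was counted after NaOH lysis.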

[2] = tested on: differentiated L6-myotubes; assay: cAMP production relative to isoprenaline (Biological example 2 of WO 2019/053427); type: cell-based; conditions: 0.25 h, compound at 10 μM, activity relative to isoproterenol at 10 μM
How it was run: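 Differentiated L6 myotubes stimulated 15 min with test compound or isoprenaline, each at final 1×10^−5 M, in HBSS with 1% BSA, 5 mM HEPES, 1 mM IBMX, pH 7.4. cAMP production by the compound expressed relative to that induced by the same concentration of isoprenaline.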

Row | Structure (SMILES) | Emax at 10 µM [1] | Emax at 10 µM [2]
1 | CS(=O)(=O)N[C@H]1CC[C@@H](C[C@@H]2CC[C@H]([C@H](O)c3cccc(F)c3)N2)CC1 [Compound 510, (R)-[(2R,5S)-5-{[(1s,4R)-4-(mesylamino)cyclohexyl]methyl}-2-pyrrolidinyl](m-fluorophenyl)methanol] | > 75% | < 25%
2 | CS(=O)(=O)N[C@H]1CC[C@@H](C[C@@H]2CC[C@H]([C@@H](O)c3cccc(F)c3)N2)CC1 [Compound 511, (S)-[(2R,5S)-5-{[(1s,4R)-4-(mesylamino)cyclohexyl]methyl}-2-pyrrolidinyl](m-fluorophenyl)methanol] | 25 to 50% | < 25%
3 | CS(=O)(=O)N(Cc1ccccc1)c1cccc(CC23CCC([C@@H](O)c4cccc(F)c4)(CC2)N3)c1 [Compound 512, (S)-[4-({m-[(benzyl)-N-mesylamino]phenyl}methyl)-7-azabicyclo[2.2.1]hept-1-yl](m-fluorophenyl)methanol] | < 25% | < 25%
4 | CS(=O)(=O)N(Cc1ccccc1)c1cccc(CC23CCC([C@H](O)c4cccc(F)c4)(CC2)N3)c1 [Compound 513, (R)-[4-({m-[(benzyl)-N-mesylamino]phenyl}methyl)-7-azabicyclo[2.2.1]hept-1-yl](m-fluorophenyl)methanol] | 25 to 50% | < 25%
5 | CS(=O)(=O)Nc1cccc(CC23CCC([C@@H](O)c4cccc(F)c4)(CC2)N3)c1 [Compound 514, (S)-(m-fluorophenyl)(4-{[m-(mesylamino)phenyl]methyl}-7-azabicyclo[2.2.1]hept-1-yl)methanol] | 50 to 75% | < 25%
6 | CS(=O)(=O)Nc1cccc(CC23CCC([C@H](O)c4cccc(F)c4)(CC2)N3)c1 [Compound 515, (R)-(m-fluorophenyl)(4-{[m-(mesylamino)phenyl]methyl}-7-azabicyclo[2.2.1]hept-1-yl)methanol] | 50 to 75% | 25 to 50%
7 | CC(C)(C[C@H]1CC[C@H](S(N)(=O)=O)CC1)NC[C@H](O)c1cccc(F)c1 [Compound 516, (1R,4r)-4-{2-[(R)-2-(m-fluorophenyl)-2-hydroxyethylamino]-2-methylpropyl}cyclohexanesulfonamide] | > 75% | < 25%
8 | CC(C)(C[C@H]1CC[C@@H](S(N)(=O)=O)CC1)NC[C@H](O)c1cccc(F)c1 [Compound 517, (1S,4s)-4-{2-[(R)-2-(m-fluorophenyl)-2-hydroxyethylamino]-2-methylpropyl}cyclohexanesulfonamide] | 25 to 50% | < 25%
9 | CC(C)(C[C@H]1CC[C@H](S(N)(=O)=O)CC1)NC[C@H](O)c1cncc(F)c1 [Compound 518, (1R,4r)-4-{2-[(R)-2-(5-fluoro-3-pyridyl)-2-hydroxyethylamino]-2-methylpropyl}cyclohexanesulfonamide] | 50 to 75% | < 25%
10 | CC(C)(C[C@H]1CC[C@@H](S(N)(=O)=O)CC1)NC[C@H](O)c1cncc(F)c1 [Compound 519, (1S,4s)-4-{2-[(R)-2-(5-fluoro-3-pyridyl)-2-hydroxyethylamino]-2-methylpropyl}cyclohexanesulfonamide] | > 75% | < 25%
11 | CN([C@H]1CC[C@@H](CC(C)(C)NC[C@H](O)c2cncc(F)c2)CC1)S(C)(=O)=O [Compound 520, (R)-2-{1,1-dimethyl-2-[(1s,4S)-4-(N-mesyl-N-methylamino)cyclohexyl]ethylamino}-1-(5-fluoro-3-pyridyl)-1-ethanol] | 50 to 75% | < 25%
12 | CN([C@H]1CC[C@H](CC(C)(C)NC[C@H](O)c2cncc(F)c2)CC1)S(C)(=O)=O [Compound 521, (R)-2-{1,1-dimethyl-2-[(1r,4R)-4-(N-mesyl-N-methylamino)cyclohexyl]ethylamino}-1-(5-fluoro-3-pyridyl)-1-ethanol] | 50 to 75% | < 25%
13 | CC(C)(C[C@H]1CC[C@@H](NS(=O)(=O)C(F)(F)F)CC1)NC[C@H](O)c1cncc(F)c1 [Compound 522, (R)-2-{1,1-dimethyl-2-[(1s,4S)-4-(trifluoromesylamino)cychloehxyl]ethylamino}-1-(5-fluoro-3-pyridyl)-1-ethanol] | > 75% | < 25%
14 | CCCS(=O)(=O)N[C@H]1CC[C@@H](CC(C)(C)NC[C@H](O)c2cncc(F)c2)CC1 [Compound 523, (R)-2-{1,1-dimethyl-2-[(1s,4S)-4-(propylsulfonylamin)cyclohexyl]ethylamino}-1-(5-fluoro-3-pyridyl)-1-ethanol] | 50 to 75% | < 25%
15 | CCS(=O)(=O)N[C@H]1CC[C@@H](CC(C)(C)NC[C@H](O)c2cccc(F)c2)CC1 [Compound 524, (R)-2-{1,1-dimethyl-2-[(1s,4S)-4-(ethylsulfonylamino)cyclohexyl]ethylamino}-1-(m-fluorophenyl)-1-ethanol] | 50 to 75% | < 25%
16 | CCS(=O)(=O)N[C@H]1CC[C@H](CC(C)(C)NC[C@H](O)c2cncc(F)c2)CC1 [Compound 525, (R)-2-{1,1-dimethyl-2-[(1r,4R)-4-(ethylsulfonylamino)cyclohexyl]ethylamino}-1-(5-fluoro-3-pyridyl)-1-ethanol] | 50 to 75% | < 25%
17 | CC(C)CS(=O)(=O)N[C@H]1CC[C@H](CC(C)(C)NC[C@H](O)c2cncc(F)c2)CC1 [Compound 526, (R)-2-{1,1-dimethyl-2-[(1r,4R)-4-(isobutylsulfonylamino)cyclohexyl]ethylamino}-1-(5-fluoro-3-pyridyl)-1-ethanol] | 50 to 75% | < 25%
18 | O[C@@H](c1cccc(F)c1)C12CCC(CCc3ccc(Cl)cc3)(CC1)N2 [Compound 527, (S)-{4-[2-(p-chlorophenyl)ethyl]-7-azabicyclo[2.2.1]hept-1-yl}(m-fluorophenyl)methanol] | < 25% | < 25%
19 | O[C@H](c1cccc(F)c1)C12CCC(CCc3ccc(Cl)cc3)(CC1)N2 [Compound 528, (R)-{4-[2-(p-chlorophenyl)ethyl]-7-azabicyclo[2.2.1]hept-1-yl}(m-fluorophenyl)methanol] | < 25% | < 25%
20 | O[C@@H](c1cncc(F)c1)C12CCC(C/C=C/c3ccccc3)(CC1)N2 [Compound 529, (S)-{4-[(E)-3-phenyl-2-propenyl]-7-azabicyclo[2.2.1]hept-1-yl}(5-fluoro-3-pyridyl)methanol] | 25 to 50% | < 25%
21 | O[C@H](c1cncc(F)c1)C12CCC(C/C=C/c3ccccc3)(CC1)N2 [Compound 530] | > 75% | 25 to 50%
22 | O[C@@H](c1cncc(F)c1)C12CCC(CCCc3ccccc3)(CC1)N2 [Compound 531, (S)-(5-fluoro-3-pyridyl){4-(3-phenylpropyl)-7-azabicyclo[2.2.1]hept-1-yl}methanol] | 50 to 75% | < 25%
23 | O[C@H](c1cncc(F)c1)C12CCC(CCCc3ccccc3)(CC1)N2 [Compound 532, (R)-(5-fluoro-3-pyridyl){4-(3-phenylpropyl)-7-azabicyclo[2.2.1]hept-1-yl}methanol] | 50 to 75% | 25 to 50%
